The target in experiment [1] is Acyl-homoserine lactone acylase PvdQ (Pseudomonas aeruginosa (strain LESB58), UniProt Q9I194). Put plainly: PvdQ acylase enzyme activity blockers – biochemical, fluorescence, plate reader and imaging, cherry-picks, dose response (AID 493231).
Experiment [2] can be described thus: HPDE-C7 pancreatic duct cell viability loss – fluorescence, HTS (AID 430). It is filed as functional, cell-based. Particulars: Homo sapiens.
Experiment [3] concerns the target G-protein coupled receptor 55 (Homo sapiens, UniProt Q9Y2T6). Put plainly: selective activators of receptor GPR55 – imaging, U2OS cells, beta-arrestin-GFP redistribution, primary screen (AID 1961). The class given is functional.
A short description of experiment [4]: viability loss of HPDE-C7K cells – cell-based, fluorescence, HTS, primary screen (AID 431). It is filed as functional. Particulars: Homo sapiens.
Experiment [5] has as its target Potassium voltage-gated channel subfamily KQT member 2 (Rattus norvegicus, UniProt O88943). Put plainly: potentiation of rat KCNQ2 current – cell-based, retigabine-insensitive compounds, dose response (AID 2654). The class given is functional.
The target in experiment [6] is T1, Polyadenylate-binding protein 1 (Homo sapiens, UniProt P11940). Put plainly: MLLE binding blockers, Cy5 peptide tracer – biochemical, fluorescence polarization, Cy5-PAM2 peptide, secondary, miRNA deadenylation inhibitor project, dose response (AID 602260). The class given is functional. To be noted: read-out: IC50_Mean. Background: Fluorescence polarisation rises when a labelled molecule tumbles more slowly, as on binding a larger partner.
T1 sequence (P11940 whole entry): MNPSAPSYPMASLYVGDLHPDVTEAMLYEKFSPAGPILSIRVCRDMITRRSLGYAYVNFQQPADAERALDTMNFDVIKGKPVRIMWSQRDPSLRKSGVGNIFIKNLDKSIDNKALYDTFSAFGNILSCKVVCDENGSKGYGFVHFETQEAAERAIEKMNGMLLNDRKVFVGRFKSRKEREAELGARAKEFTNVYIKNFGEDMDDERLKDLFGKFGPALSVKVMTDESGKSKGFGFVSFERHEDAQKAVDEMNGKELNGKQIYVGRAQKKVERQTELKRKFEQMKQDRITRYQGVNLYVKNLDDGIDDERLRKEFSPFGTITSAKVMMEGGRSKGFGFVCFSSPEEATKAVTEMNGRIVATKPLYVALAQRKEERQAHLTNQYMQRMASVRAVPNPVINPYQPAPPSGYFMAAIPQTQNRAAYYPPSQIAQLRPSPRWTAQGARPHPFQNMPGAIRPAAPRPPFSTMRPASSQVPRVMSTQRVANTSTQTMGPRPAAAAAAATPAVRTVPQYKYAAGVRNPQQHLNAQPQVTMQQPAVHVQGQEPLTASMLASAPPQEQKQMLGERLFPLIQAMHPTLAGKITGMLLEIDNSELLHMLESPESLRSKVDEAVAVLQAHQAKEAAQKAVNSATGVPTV

Experiment [7] can be described thus: viability of uninfected HEp-2 cells – cell-based, HTS, cytotoxicity control for RSV inhibitor project, dose response (AID 2410). It is filed as functional. Particulars: human respiratory syncytial virus.
Experiment [8] in a line: cells.
The target of experiment [9] is T1, Polyadenylate-binding protein 1. Nature of the experiment: MLLE domain peptide-binding blockers, IC50 – biochemical, fluorescence polarization, FITC-PAM2 peptide, dose response (AID 602259). The class given is functional. Particulars: read-out: IC50_Mean.
Experiment [10] has as its target Cytochrome P450 2C9 (Homo sapiens, UniProt P11712). To be noted: Potency.
Experiment [11] concerns the target T2, Carboxy-terminal domain RNA polymerase II polypeptide A small phosphatase 1 (Homo sapiens, UniProt Q9GZU7).
T2 sequence (Q9GZU7 whole entry): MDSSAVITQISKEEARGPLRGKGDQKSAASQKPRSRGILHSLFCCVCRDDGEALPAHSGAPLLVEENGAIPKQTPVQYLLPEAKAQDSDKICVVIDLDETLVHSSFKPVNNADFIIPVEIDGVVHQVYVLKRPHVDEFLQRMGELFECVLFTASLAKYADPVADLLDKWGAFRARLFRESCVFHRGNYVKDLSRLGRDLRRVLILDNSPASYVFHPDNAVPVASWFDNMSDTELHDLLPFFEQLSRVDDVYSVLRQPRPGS
Put plainly: CTDSP1 inhibitors, concentration-response, biochemical, absorbance readout, ultra-high-throughput screen actives (AID 540297). It is filed as functional.

The target in experiment [12] is ORF 73 (Human herpesvirus 8, UniProt O40947). Nature of the experiment: KSHV LANA DNA-binding disruption – biochemical, fluorescence polarization, cherry-picked samples, dose response (AID 504725).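 Further: fluorescence polarization of a labeled DNA duplex reporting LANA DNA binding; potency is for inhibitors that block LANA binding to the DNA.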 Details: species or system Human gammaherpesvirus 8.
In experiment [13] the target is Ras and Rab interactor 1/Tyrosine-protein kinase ABL1 (Homo sapiens, UniProt P00519+Q13671). The class given is functional.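 Further: biochemical TR-FRET dose-response test measuring inhibition of binding between Rin1 and Abl proteins.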
Ras and Rab interactor 1/Tyrosine-protein kinase ABL1, sequence (P00519 whole entry): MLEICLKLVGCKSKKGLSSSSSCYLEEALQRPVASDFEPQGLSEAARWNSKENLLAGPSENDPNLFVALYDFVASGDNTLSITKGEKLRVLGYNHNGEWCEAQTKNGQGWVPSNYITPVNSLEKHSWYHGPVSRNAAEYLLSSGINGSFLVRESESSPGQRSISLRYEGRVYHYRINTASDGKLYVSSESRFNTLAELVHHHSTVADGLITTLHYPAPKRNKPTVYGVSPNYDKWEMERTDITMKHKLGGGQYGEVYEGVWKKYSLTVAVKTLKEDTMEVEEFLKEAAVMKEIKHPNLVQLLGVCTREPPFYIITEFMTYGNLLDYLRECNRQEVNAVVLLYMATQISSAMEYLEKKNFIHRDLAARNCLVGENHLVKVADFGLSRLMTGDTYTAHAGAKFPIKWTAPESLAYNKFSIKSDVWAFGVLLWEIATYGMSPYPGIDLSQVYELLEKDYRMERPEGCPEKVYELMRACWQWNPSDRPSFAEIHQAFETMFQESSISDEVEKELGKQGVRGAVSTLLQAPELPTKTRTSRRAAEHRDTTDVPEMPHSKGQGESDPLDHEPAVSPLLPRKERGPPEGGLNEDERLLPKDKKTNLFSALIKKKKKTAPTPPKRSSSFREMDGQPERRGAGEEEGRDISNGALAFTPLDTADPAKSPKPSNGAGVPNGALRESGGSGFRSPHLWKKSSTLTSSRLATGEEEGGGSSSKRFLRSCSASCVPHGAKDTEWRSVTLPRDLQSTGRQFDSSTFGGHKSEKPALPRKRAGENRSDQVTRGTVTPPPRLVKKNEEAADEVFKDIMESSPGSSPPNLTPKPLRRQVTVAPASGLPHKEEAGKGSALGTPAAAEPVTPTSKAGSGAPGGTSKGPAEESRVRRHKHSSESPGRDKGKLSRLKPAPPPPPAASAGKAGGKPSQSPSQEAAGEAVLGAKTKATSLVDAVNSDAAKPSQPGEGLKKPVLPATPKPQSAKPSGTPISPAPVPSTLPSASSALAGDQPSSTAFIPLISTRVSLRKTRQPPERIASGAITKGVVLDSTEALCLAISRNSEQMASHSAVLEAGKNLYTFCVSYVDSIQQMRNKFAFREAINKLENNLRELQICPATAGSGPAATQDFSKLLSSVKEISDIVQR
Ras and Rab interactor 1/Tyrosine-protein kinase ABL1, sequence (Q13671 whole entry): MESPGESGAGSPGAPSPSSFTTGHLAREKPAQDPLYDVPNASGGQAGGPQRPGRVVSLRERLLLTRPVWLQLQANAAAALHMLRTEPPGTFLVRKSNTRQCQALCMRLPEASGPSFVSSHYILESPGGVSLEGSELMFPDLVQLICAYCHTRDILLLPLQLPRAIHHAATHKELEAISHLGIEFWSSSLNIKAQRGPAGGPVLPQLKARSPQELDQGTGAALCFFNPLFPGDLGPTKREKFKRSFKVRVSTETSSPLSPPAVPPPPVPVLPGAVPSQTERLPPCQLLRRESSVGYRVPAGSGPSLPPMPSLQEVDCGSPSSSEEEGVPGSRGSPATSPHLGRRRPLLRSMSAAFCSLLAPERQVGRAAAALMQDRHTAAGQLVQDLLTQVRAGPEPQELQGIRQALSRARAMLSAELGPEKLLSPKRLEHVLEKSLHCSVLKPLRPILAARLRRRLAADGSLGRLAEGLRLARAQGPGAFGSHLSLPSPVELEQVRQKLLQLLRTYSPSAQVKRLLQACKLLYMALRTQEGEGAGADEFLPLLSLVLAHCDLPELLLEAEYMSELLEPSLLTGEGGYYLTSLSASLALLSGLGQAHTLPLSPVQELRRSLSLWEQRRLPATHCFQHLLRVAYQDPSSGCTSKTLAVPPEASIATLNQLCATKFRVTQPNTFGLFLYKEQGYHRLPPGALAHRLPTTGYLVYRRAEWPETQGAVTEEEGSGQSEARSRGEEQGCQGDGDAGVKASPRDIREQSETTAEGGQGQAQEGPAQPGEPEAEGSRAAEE
Experiment [14] relates to HeLa. Nature of the experiment: viability loss in HeLa cells – cell-based, 24 h, cherry-picked samples, cytotoxicity control, dose response (AID 504726).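 Further: potency for cytotoxicity as loss of luminescence signal.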 Particulars: Homo sapiens. It is filed as functional.
Experiment [15] addresses DNA dC->dU-editing enzyme APOBEC-3A (Homo sapiens, UniProt P31941). Put plainly: Dose Response confirmation of small molecule APOBEC3A DNA Deaminase Inhibitors via a fluorescence-based single-stranded DNA deaminase assay. [Related pubchem assays (depositor defined):AID493011, AID493024]. The class given is functional.
Experiment [16] has as its target DNA dC->dU-editing enzyme APOBEC-3G (Homo sapiens, UniProt Q9HC16). The class given is functional.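 Further: Dose-response counterscreen measuring inhibition of APOBEC3G DNA deaminase activity, run while confirming APOBEC3A inhibitors.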
The target of experiment [17] is T1, Polyadenylate-binding protein 1. Nature of the experiment: blockers of PABP interaction with poly(A) – biochemical, fluorescence polarization, […] (AID 2014).
In experiment [18] the target is Eukaryotic translation initiation factor 4H (Homo sapiens, UniProt Q15056). Put plainly: eIF4H binding inhibition – biochemical, uHTS, fluorescence polarization, translation initiation inhibitor project, primary screen (AID 2012).

This note sets out measurements from ChEMBL document CHEMBL1201862, “PubChem BioAssay data set” (2004).

As a reminder, the AC50 is the concentration giving half of the maximal activity seen. The term EC50 denotes the midpoint of the concentration-response curve. Broadly, the CC50 is the concentration at which the toxic effect on the cells reaches its halfway point.

The source made the active and inactive calls. A value given as a limit tells only on which side of the number the result lay.

Potassium voltage-gated channel subfamily KQT member 2, sequence (O88943 whole entry): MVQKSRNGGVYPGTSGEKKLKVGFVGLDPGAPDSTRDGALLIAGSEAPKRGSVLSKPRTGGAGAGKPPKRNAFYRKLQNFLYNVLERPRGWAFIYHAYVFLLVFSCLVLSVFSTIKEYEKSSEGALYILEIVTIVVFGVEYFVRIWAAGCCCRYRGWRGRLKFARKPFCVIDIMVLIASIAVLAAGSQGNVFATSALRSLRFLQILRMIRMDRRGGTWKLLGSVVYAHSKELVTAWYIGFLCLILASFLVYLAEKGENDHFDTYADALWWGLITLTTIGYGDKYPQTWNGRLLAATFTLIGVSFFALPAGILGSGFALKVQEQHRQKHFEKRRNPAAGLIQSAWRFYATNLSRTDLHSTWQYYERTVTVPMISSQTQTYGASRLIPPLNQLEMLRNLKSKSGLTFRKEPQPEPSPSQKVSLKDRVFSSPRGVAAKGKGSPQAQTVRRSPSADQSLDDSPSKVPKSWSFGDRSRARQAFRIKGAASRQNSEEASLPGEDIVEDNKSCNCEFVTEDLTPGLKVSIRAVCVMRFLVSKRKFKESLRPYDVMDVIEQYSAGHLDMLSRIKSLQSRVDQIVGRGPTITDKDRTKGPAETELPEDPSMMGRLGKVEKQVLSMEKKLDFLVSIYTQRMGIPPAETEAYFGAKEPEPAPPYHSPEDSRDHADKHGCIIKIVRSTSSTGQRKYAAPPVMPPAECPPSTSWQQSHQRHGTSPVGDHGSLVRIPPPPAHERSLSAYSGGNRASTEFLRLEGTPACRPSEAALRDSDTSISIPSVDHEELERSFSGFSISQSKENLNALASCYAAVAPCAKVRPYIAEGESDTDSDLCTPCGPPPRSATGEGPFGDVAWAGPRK
Cytochrome P450 2C9, sequence (P11712 whole entry, the tested form may be a part): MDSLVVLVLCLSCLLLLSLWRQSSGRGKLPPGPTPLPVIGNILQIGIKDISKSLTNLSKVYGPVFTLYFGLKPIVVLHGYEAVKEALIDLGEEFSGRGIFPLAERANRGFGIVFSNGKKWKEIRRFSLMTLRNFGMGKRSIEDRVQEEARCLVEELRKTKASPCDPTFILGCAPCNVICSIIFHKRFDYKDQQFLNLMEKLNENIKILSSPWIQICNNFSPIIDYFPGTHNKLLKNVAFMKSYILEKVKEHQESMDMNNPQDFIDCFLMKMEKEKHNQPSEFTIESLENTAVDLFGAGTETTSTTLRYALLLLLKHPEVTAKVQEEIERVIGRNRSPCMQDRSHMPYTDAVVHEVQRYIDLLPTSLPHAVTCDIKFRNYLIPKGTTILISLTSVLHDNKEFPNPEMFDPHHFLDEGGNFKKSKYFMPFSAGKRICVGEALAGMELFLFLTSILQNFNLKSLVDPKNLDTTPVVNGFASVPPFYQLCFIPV
Acyl-homoserine lactone acylase PvdQ, sequence (Q9I194 24-193 limits assumed): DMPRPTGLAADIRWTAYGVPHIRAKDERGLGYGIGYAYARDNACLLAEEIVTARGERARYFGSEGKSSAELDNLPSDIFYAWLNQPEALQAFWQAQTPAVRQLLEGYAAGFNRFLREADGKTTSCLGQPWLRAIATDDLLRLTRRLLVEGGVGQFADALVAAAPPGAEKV
Acyl-homoserine lactone acylase PvdQ, sequence (Q9I194 217-762 limits assumed): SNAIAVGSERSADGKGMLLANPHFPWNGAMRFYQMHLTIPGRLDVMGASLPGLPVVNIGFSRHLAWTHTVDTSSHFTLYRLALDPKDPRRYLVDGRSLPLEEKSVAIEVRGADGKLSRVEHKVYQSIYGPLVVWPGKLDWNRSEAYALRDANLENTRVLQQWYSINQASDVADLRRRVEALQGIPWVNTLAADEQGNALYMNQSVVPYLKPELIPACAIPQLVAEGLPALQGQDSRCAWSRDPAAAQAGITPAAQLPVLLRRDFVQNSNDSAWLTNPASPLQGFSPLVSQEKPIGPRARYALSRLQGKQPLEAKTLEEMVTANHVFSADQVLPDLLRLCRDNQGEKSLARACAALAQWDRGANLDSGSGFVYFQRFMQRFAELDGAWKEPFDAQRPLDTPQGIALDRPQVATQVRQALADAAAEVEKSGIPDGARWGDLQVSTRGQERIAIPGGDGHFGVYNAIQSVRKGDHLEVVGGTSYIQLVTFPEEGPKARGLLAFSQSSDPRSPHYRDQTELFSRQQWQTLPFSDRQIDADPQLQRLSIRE

Take `Cc1ccc(C)c(S(=O)(=O)NC2CCSC2=O)c1` (centres undefined): in experiment [1], the AC50 is 3.22 µM (active).
Regarding `COc1ccc(C2(O)CC3CCC(C2)N3c2cc(C)nc(-c3ccccc3)n2)cc1` (centres undefined), the EC50 is > 20 µM (not active) in experiment [2], 7.35 µM (active) in [3] and > 20 µM (not active) in experiment [4].
Regarding `CCC(C)c1ccc(NC(=S)Nc2cccnc2)cc1` (centres undefined), in [5], the 50% effective concentration (EC50) is 12.6 µM (active).
For the compound `Cc1ccc(C(=O)O)cc1NC(=S)NC(=O)c1ccc(-c2ccc(Cl)cc2)o1`, the IC50 in [6] was > 66 µM (inactive); in experiment [8], 22.8 µM (active); in experiment [9], > 66 µM (inactive). Besides, the 50% cytotoxic concentration (CC50) in experiment [7] is 23.2 µM (active).
Consider `COc1ccc(-c2cc(=O)c3ccc(O)cc3o2)cc1`, for which the half-maximal activity concentration (AC50) in experiment [10] is 3.98 µM (inconclusive).
For the compound `Cc1ccc(NC(=O)Nc2cccnc2)cc1F`, the half-maximal effective concentration (EC50) in experiment [5] is 9.14 µM (active).
Turning to `COc1cc(O)c(C(C)=O)c(CC(=O)O)c1`, the IC50 in experiment [11] is 3.5 µM (active); in experiment [13], 15.6 µM (inactive). The concentration at half-maximal activity (AC50) in experiment [12] is 46.3 µM (active).
As to `C/C(=N\Nc1nc2c(s1)CCCC2)c1ccc(Cl)cc1`, the concentration at half-maximal activity (AC50) in experiment [14] is 83.5 µM (active).
As to `Cc1nc2ccc(NC(=O)C3COc4ccccc4O3)cc2s1` (centres undefined), the IC50 was 6.32 µM (active) in experiment [15], 6.02 µM (active) in experiment [16], 11.1 µM (active) in experiment [17] and > 100 µM (inactive) in experiment [18].
